Results taken from patent publication US20130136778A1, “PTEROSTILBENE (PTER) FOR USE IN THE PREVENTION AND/OR TREATMENT OF SKIN DISEASES, DAMAGES OR INJURIES” (GREEN MOLECULAR, S.L., priority 2009, published 2013).

Experiments:
Type in all cases: in vivo
SKH-1 mice [1] = assay: Anatomopathological study of the skin after chronic exposure to UV-B; conditions: chronic UV-B irradiation
Description: Histochemical techniques were used to study the skin tissues of the different procedures, at a microscopic level.
The tissues were fixed in 4% formaldehyde in PBS over 24 h at 22° C. After the tissues were fixed, they had to be dehydrated in large amounts of ethanol and placed in a hydrophobic and xylene mixture to allow the paraffin to penetrate the tissues to provide sufficient consistency for slicing them thinly in a microtome.
The samples in paraffin were processed with the microtome obtaining slices of about 5-10 μm. The samples were spread over a drop of gelatin at 37° C. and were collected in gelatinized slides.
The protocol used for staining the samples was: • 1. Incubation with Mayer's Hematoxylin for 10-15 minutes. • 2. Wash under running water until bluish. • 3. Incubate with Eosin (1%) for 2-4 minutes. • 4. Eliminate the remaining eosin in ethanol 70° • 5. Dehydration. • 6. Rinse with xylol for 3 minutes. • 7. Let the trays dry out on the stove at 37°.
In relation to the histopathological exam of the tumors induced by chronic irradiation to UV in the SKH1 mice, it was confirmed that the treatment with UV-B produced a strong acanthosis due primarily to the inflammatory process; this gave way to the first signs of tumors, mostly of carcinoma type and not melanoma.
Both the reference compounds and the ones subject of this study (10 μmoles/mouse of polyphenols, or 200 μl of each photoprotector) were applied to the back of the mice for 20 minutes prior to their exposure to UV-B. Medium of groups of 20 mice. Every parameter was measured according to the degree of seriousness (+) light-(+++) serious.

SKH-1 mice [2] = assay: Thickness of the epidermis after acute UV-B exposure of 360 mJ/cm2
Description: UVB Acute exposure protocols were used: Mice underwent a single exposure of 360 mJ/cm2. The study was conducted at 24 hours after exposure. This protocol was used to evaluate the photoprotective effect of the compounds studied. With the same acute-phase protocol mice from all groups were irradiated. Subsequently mice remained in the animal storage area for a week to see the evolution of the inflammatory response and edema. • 1. Edema formation: skinfold thickness was determined with a caliper 24 hours after the first exposure. • 2. Study of the thickness of the epidermis after exposure to acute irradiation (360 mj/cm^2 24 h hours and 7 days after irradiation). • 3. Histological studies: measuring, in the pictures obtained from histological sections, the thickness of the epidermis. For studies of acute exposure skin samples were taken from the back of the mouse. These samples were fixed with 4% paraformaldehyde (24 hours) and embedded in paraffin. Following cutting the samples were stained with hematoxylin and eosin. The two protocols of UV-B exposure used were: • Intense exposure after a single exposure of 360 mJ/cm^2. The study was carried out 24 hours after the exposure. This protocol was used to assess the photoprotective effects of the compounds studied. • Intense exposure after a single exposure of 360 mJ/cm^2. The study was carried out 1 week after the exposure. The mice were kept in the shed for a week to observe the evolution of the inflammatory and edematous response. At 24 hours or 1 week after the administration of the different treatments the mice were sacrificed and their skin fixed with 4% PFA. To measure the thickness of the epidermis to evaluate possible hyperplasia, a computer program was used, Image J, calibrated with the assistance of a Neubauer camera which allowed the measuring of the epidermis. Results obtained were statistically analyzed by ANOVA and contrasted by the Tukey test and grouped according to the significant differences. […] Therefore PTER alone could be used efficiently in the prevention of skin diseases, injuries or damages induced by ultraviolet B radiation. The evaluation of skin thickness was carried out by using computer software (IMAGE J). Results obtained by ANOVA were contrasted by the Tukey test and grouped according to the significant differences. […] Therefore PTER separately could be used efficiently in the prevention of skin diseases, damages or injuries induced by ultraviolet B radiation.

BALB/c mice = assay: Contact hypersensitivity induced by oxazolone (ear edema); conditions: FIG. 22; 1 μmol polyphenols, 20 mg diprosone; applied after oxazolone
Description: The edema was calculated as the difference between the thickness that was produced in the ears, before the outcomes of the reaction, and their thickness 24 hours later, and it was measured with a vernier caliper.
The change was expressed as the relative increase in relation to day 0.
The application of oxazolone after sensitization to the same substance produces a reaction of hypersensitivity by contact, which appears as an eczematous reaction, with infiltration of lymphocytes and macrophages, with edema of the epidermis.
The BALB/c mice are sensitized on day 0 through the application, on the shaved abdomen, of 100 μL of oxazolone at 1.5% in acetone (w/v). Prior to the induction for hypersensitization, the thickness of the ear was measured with the help of a vernier caliper (Mitutoyo micrometer). The reaction was caused on day 7 by applying 20 μL of 2.5% oxazolone in ethanol (10 μL to each side of the right ear).
As a control measure the left ear was used, to which 20 μL of ethanol was applied. And a standard treatment, Diprosone® cream was used: (Schering Plough B. V., Utrecht, The Netherlands), that contains 0.5 mg de betamethasone/g. […]

SKH-1 mice [3] = assay: Experimental psoriasis induced by TPA
Description: For the induction of psoriasis, the agent “12-O-tetradecanoylphorbol-13 acetate” (TPA) was used.
Since our objective was to assess the progress of the lesions caused by psoriasis in combination with the use of polyphenols, a model of continuous exposure and a weaker concentration of TPA were used, on a daily dose of 2 nmoles of TPA over a period of a week, which allowed us to observe the progress of the psoriasis.
The induction was performed with 2 nmol TPA/mouse on an area of 1 cm^2, applying 10 μL of the 200 μM solution in acetone. This application protocol was carried out taking into account that when applying 20 μL as stated in the model, the volume increased considerably and it lost its concentration, therefore it was decided to make it more concentrated.
As a standard treatment, Dexamethasone was used, (from Sigma Solution 25 mM in acetone). The administration of the standard treatment and the products to be tested were given 30 minutes prior to the application of TPA, both beginning on the same day.
The groups, of 6 mice, for this assessment were: • Not treated. • Reference compound: 0.5 μmoles of Dexamethasone (200 μL of one solution 25 mM in acetone). • Medium: 200 μl of vacuumed Liposomes. • Resveratrol: 200 μL of Resveratrol Liposomes (10 μmol in total). • PTER: 200 μL of PTER Liposomes (10 μmol in total). • QUER: 200 μL of QUER Liposomes (10 μmol in total). • PTER+QUER:: 200 μL of PTER Liposomes+QUER (10 μmol in total).
At 24 hours (day 7) after the last administration of the different treatments and TPA, 3 mice from each group were sacrificed and their skin fixed with 4% PFA. The remaining mice were kept under the treatment with no exposure to TPA, to verify if the skin recovered faster on the treatment than on its own. At 24 hours (day 9) after the last administration of the different treatments the rest of the mice were sacrificed and their skin fixed with 4% PFA.
The flaky aspect of the skin was quantified in a scale of 0-3, being 0, nothing; 1, mild; 2, moderate; 3, severe.

COc1cc(/C=C/c2ccc(O)cc2)cc(OC)c1 [PTER, 3,5-dimethoxy-4′-hydroxy-trans-resveratrol]
anti-inflammatory and anti-tumor formation effect, histopathological exam (SKH-1 mice [1]): the compound with greatest benefits
thickness of the epidermis 24 hours after irradiation, applied after UVB (SKH-1 mice [2]; FIG. 2): more efficient in the treatment of skin diseases, injuries or damages caused by radiation, when applied after the exposure to UVB, than the commercial creams (Vichy, Heliocare and Isdin)
thickness of the epidermis 24 hours after irradiation, applied before UVB (SKH-1 mice [2]; FIG. 2): more efficient as photoprotector, when applied before the exposure to UVB, than the commercial creams (Vichy, Heliocare and Isdin)
thickness of the epidermis 24 hours after irradiation (before or after application) (SKH-1 mice [2]; FIG. 2, versus group treated only with UV-B): produced better results than even commercial photoprotectors and Resveratrol
thickness of the epidermis 1 week after irradiation, applied after UVB (SKH-1 mice [2]; FIG. 3): more efficient in the treatment of skin diseases, injuries or damages caused by radiation, when applied after the exposure to UVB, than the commercial creams (Vichy, Heliocare and Isdin)
thickness of the epidermis 1 week after irradiation, applied before UVB (SKH-1 mice [2]; FIG. 3): more efficient as photoprotector, when applied before the exposure to UVB, than the commercial creams (Vichy, Heliocare and Isdin)
edema of the ear / inflammatory changes induced by oxazolone (BALB/c mice): could prevent inflammatory changes as a result of inflammation induced by oxazolone
index of excoriation or descaling (scale 0-3) (SKH-1 mice [3]; 24 hours after 7 administrations of TPA): fewer indexes of excoriation or descaling
increase of skinfold throughout the procedure (SKH-1 mice [3]; FIG. 23, 6 consecutive days, treatment 30 min prior to 2 nmol TPA): an important decrease in the increase of skinfolds
increase in the skinfold 24 hours after the first administration of TPA (SKH-1 mice [3]; FIG. 24, treatment 30 min prior to 2 nmol TPA): significantly diminished the appearance of edema
skinfold after 3 administrations of TPA (SKH-1 mice [3]; FIG. 25): produce a diminishing effect on the inflammation produced by TPA
histological analysis of the lesions (SKH-1 mice [3]; FIG. 28, hematoxylin-eosin, TPA daily over 7 days): no signs of papillomatosis, but there was acanthosis due to a massive proliferation
